This note sets out measurements from patent publication US10610520B2, “Heterocyclic compound” (Takeda Pharmaceutical Company Limited, priority 2016, dated 2020).

This experiment addresses T1, His-hMAGL (recombinant polyhistidine tagged human MAGL protein) (Homo sapiens, UniProt Q99685).
T1 construct: made in house; host or cells: E. coli BL21(DE3)
T1 sequence (Q99685 1-303): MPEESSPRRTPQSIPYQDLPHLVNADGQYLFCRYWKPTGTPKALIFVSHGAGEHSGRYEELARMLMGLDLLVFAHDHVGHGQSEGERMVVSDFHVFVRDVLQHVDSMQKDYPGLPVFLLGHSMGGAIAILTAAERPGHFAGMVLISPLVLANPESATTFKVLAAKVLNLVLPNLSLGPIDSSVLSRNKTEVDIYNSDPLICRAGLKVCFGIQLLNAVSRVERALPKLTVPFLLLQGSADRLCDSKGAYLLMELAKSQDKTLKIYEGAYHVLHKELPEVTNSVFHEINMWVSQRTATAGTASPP
Kind of experiment: Measurement of MAGL inhibitory activity (arachidonic acid production from 2-arachidonylglycerol, RapidFire-mass spectrometry). As to conditions: MAGL inhibitory rate, test compound 10 μM, 60 min preincubation, 2-arachidonylglycerol substrate. It is filed as biochemical. On the procedure:
The His-hMAGL obtained above was diluted with enzyme reaction buffer (10 mM Tris-HCl, pH 7.5, 1 mM EDTA, 0.025 (w/v) % Triton X-100, 0.01% Bovine serum albumin) to a concentration of 7.5 ng/mL. […] Thereafter, to each well was added 5 μL of 150 μM 2-arachidonylglycerol (Tocris Bioscience), and the mixture was incubated at room temperature for 10 min. Then, 10 μL of 2% formic acid (Wako Pure Chemical Industries, Ltd.) was added to stop the reaction. Furthermore, acetonitrile (50 μL) containing 3 μM arachidonic acid-d8 (Cayman Chemical Company) was added and the mixture was stirred.
The amount of arachidonic acid in the obtained enzyme reaction mixture was calculated by measuring by RapidFire-mass spectrometry and correcting by the amount of arachidonic acid-d8. High Throughput online solid phase extraction was performed using RapidFire 300™ system (Agilent Technologies, Inc.). Samples were loaded on SPE C4 cartridge (Agilent Technologies, Inc.) and desalted with 0.2 (v/v) % acetic acid (Wako Pure Chemical Industries, Ltd.) in ultrapure water/acetonitrile (70/30, v/v) at a flow rate of 1.5 mL/min, eluted at a flow rate of 0.5 mL/min with 0.2 (v/v) % acetic acid dissolved in acetonitrile/ultrapure water (90/10, v/v), and injected into the mass spectrometry part. The injection needle was washed with ultrapure water (500 millisecond) and acetonitrile (500 millisecond) to minimize carry-over. […] The RapidFire300 system was controlled by RapidFire UI software version 3.6 (Agilent Technologies, Inc.).
The mass spectrometry of the resultant product was performed using API4000™ triple quadrupole mass spectrometer (AB SCIEX) equipped with an electrospray ion sauce (TurboIon Spray™) in a negative selected reaction monitoring (SRM) mode. The conditions of SRM are shown below. The parameters of the instrument were optimized as follows: capillary temperature 600° C., ion spray voltage −4.5 kV, collision gas 8, curtain gas 15 psi, ion source gas 1 60 psi, ion source gas 2 60 psi. The mass spectrometer was controlled by Analyst™ software version 1.5.1 (AB SCIEX). The peak area integration was analyzed using RapidFire integrator software version 3.6 (Agilent Technologies, Inc.).
MAGL inhibitory rate (%) was calculated according to the following calculation formula. (1-(arachidonic acid production amount of test compound addition group−arachidonic acid production amount of enzyme-free group)÷(arachidonic acid production amount of test compound-free group−arachidonic acid production amount of enzyme-free group))×100

As usually defined, the inhibition is the change of the read-out against control, counted positive when it falls.

As to `O=C1CCC2(CN(C(=O)c3ccc(-c4ccccc4)cc3F)C2)N1` [Example 31, 2-((3-fluorobiphenyl-4-yl)carbonyl)-2,5-diazaspiro[3.4]octan-6-one], the inhibition at 10 µM came to 84%.

For `O=C1CCC2(CN(C(=O)c3cc4cc(C(F)(F)F)ccc4s3)C2)N1` [Example 33, 2-((5-(trifluoromethyl)-1-benzothiophen-2-yl)carbonyl)-2,5-diazaspiro[3.4]octan-6-one], the inhibition at 10 µM is 85%.

Consider `O=C1CCC2(CN(C(=O)N3CC(COc4ccc(F)cc4Cl)C3)C2)N1` [Example 34, 2-((3-((2-chloro-4-fluorophenoxy)methyl)azetidin-1-yl)carbonyl)-2,5-diazaspiro[3.4]octan-6-one], for which the inhibition at 10 µM worked out at 99%.

As to `O=C1CCC2(CN(C(=O)c3sc4cc(Br)ccc4c3Cl)C2)N1` [Example 35, 2-((6-bromo-3-chloro-1-benzothiophen-2-yl)carbonyl)-2,5-diazaspiro[3.4]octan-6-one], the inhibition at 10 µM came to 99%.

Take `O=C1CCC2(CN(C(=O)c3sc4cc(-c5ccc(F)cc5)ccc4c3Cl)C2)N1` [Example 36, 2-((3-chloro-6-(4-fluorophenyl)-1-benzothiophen-2-yl)carbonyl)-2,5-diazaspiro[3.4]octan-6-one]: the inhibition at 10 µM is 99%.

As to `O=C1CCC2(CN(C(=O)c3sc4cc(-c5cccc(F)c5)ccc4c3Cl)C2)N1` [Example 37, 2-((3-chloro-6-(3-fluorophenyl)-1-benzothiophen-2-yl)carbonyl)-2,5-diazaspiro[3.4]octan-6-one], the inhibition at 10 µM is 99%.

Turning to `O=C1CCC2(CN(C(=O)c3sc4cc(-c5ccccc5F)ccc4c3Cl)C2)N1` [Example 38, 2-((3-chloro-6-(2-fluorophenyl)-1-benzothiophen-2-yl)carbonyl)-2,5-diazaspiro[3.4]octan-6-one], the inhibition at 10 µM is 103%.

Take `O=C1CCC2(CN(C(=O)c3sc4cc(-c5ccc(F)cc5F)ccc4c3Cl)C2)N1` [Example 39, 2-((3-chloro-6-(2,4-difluorophenyl)-1-benzothiophen-2-yl)carbonyl)-2,5-diazaspiro[3.4]octan-6-one]: the inhibition at 10 µM amounted to 101%.

With `O=C1CCC2(CN(C(=O)c3ccc(-c4ccc(C(F)(F)F)cc4)cc3)C2)N1` [Example 40, 2-((4′-(trifluoromethyl)biphenyl-4-yl)carbonyl)-2,5-diazaspiro[3.4]octan-6-one], the inhibition at 10 µM turned out to be 98%.

Take `COc1cc(-c2ccccc2)ccc1C(=O)N1CC2(CCC(=O)N2)C1` [Example 43, 2-((3-methoxybiphenyl-4-yl)carbonyl)-2,5-diazaspiro[3,4]octan-6-one]: the inhibition at 10 µM was found to be 87%.

In the case of `O=C1CCC2(CN(C(=O)c3ccc(-c4ccc(C(F)(F)F)c(Cl)c4)cc3)C2)N1` [Example 44, 2-((3′-chloro-4′-(trifluoromethyl)biphenyl-4-yl)carbonyl)-2,5-diazaspiro[3.4]octan-6-one], the inhibition at 10 µM came out at 100%.

On to `O=C1CCC2(CN(C(=O)c3ccc(-c4ccc(C(F)(F)F)c(F)c4)cc3)C2)N1` [Example 45, 2-((3′-fluoro-4′-(trifluoromethyl)biphenyl-4-yl)carbonyl)-2,5-diazaspiro[3.4]octan-6-one], for which the inhibition at 10 µM came out at 97%.

With `O=C1CCC2(CN(C(=O)c3ccc(-c4ccc(C(F)(F)F)cc4F)cc3)C2)N1` [Example 46, 2-((2′-fluoro-4′-(trifluoromethyl)biphenyl-4-yl)carbonyl)-2,5-diazaspiro[3.4]octan-6-one], the inhibition at 10 µM is 96%.

Turning to `O=C1CCC2(CN(C(=O)c3ccc(-c4ccc(C(F)(F)F)cc4Cl)cc3)C2)N1` [Example 47, 2-((2′-chloro-4′-(trifluoromethyl)biphenyl-4-yl)carbonyl)-2,5-diazaspiro[3.4]octan-6-one], the inhibition at 10 µM stood at 96%.

In the case of `O=C1CCC2(CN(C(=O)c3ccc(-c4cc(C(F)(F)F)cc(C(F)(F)F)c4)cc3)C2)N1` [Example 48, 2-((3′,5′-bis(trifluoromethyl)biphenyl-4-yl)carbonyl)-2,5-diazaspiro[3.4]octan-6-one], the inhibition at 10 µM is 98%.

As for `O=C1CCC2(CN(C(=O)c3ccc(-c4cccc(C(F)(F)F)c4F)cc3)C2)N1` [Example 49, 2-((2′-fluoro-3′-(trifluoromethyl)biphenyl-4-yl)carbonyl)-2,5-diazaspiro[3.4]octan-6-one], the inhibition at 10 µM came out at 99%.

Consider `O=C1CCC2(CN(C(=O)c3ccc(-c4ccc(F)c(C(F)(F)F)c4)cc3)C2)N1` [Example 50, 2-((4′-fluoro-3′-(trifluoromethyl)biphenyl-4-yl)carbonyl)-2,5-diazaspiro[3.4]octan-6-one], for which the inhibition at 10 µM stood at 98%.

As to `O=C1CCC2(CN(C(=O)c3ccc(-c4cccc(C(F)(F)F)c4Cl)cc3)C2)N1` [Example 51, 2-((2′-chloro-3′-(trifluoromethyl)biphenyl-4-yl)carbonyl)-2,5-diazaspiro[3.4]octan-6-one], the inhibition at 10 µM was determined as 99%.

As to `O=C1CCC2(CN(C(=O)c3ccc(-c4ccc(Cl)c(C(F)(F)F)c4)cc3)C2)N1` [Example 52, 2-((4′-chloro-3′-(trifluoromethyl)biphenyl-4-yl)carbonyl)-2,5-diazaspiro[3.4]octan-6-one], the inhibition at 10 µM amounted to 99%.

On to `O=C1CCC2(CN(C(=O)c3ccc(-c4cc(C5CC5)ccc4F)cc3)C2)N1` [Example 53, 2-((5′-cyclopropyl-2′-fluorobiphenyl-4-yl)carbonyl)-2,5-diazaspiro[3.4]octan-6-one], for which the inhibition at 10 µM amounted to 99%.

For the compound `CC(C)(C)c1ccc(-c2ccc(C(=O)N3CC4(CCC(=O)N4)C3)cc2)cc1` [Example 54, 2-((4′-tert-butylbiphenyl-4-yl)carbonyl)-2,5-diazaspiro[3.4]octan-6-one], the inhibition at 10 µM was 99%.

With `CC(C)(C)c1cccc(-c2ccc(C(=O)N3CC4(CCC(=O)N4)C3)cc2)c1` [Example 55, 2-((3′-tert-butylbiphenyl-4-yl)carbonyl)-2,5-diazaspiro[3.4]octan-6-one], the inhibition at 10 µM amounted to 101%.

With `Cn1c(-c2ccc(C(=O)N3CC4(CCC(=O)N4)C3)cc2)cc2ccccc21` [Example 56, 2-(4-(1-methyl-1H-indol-2-yl)benzoyl)-2,5-diazaspiro[3.4]octan-6-one], the inhibition at 10 µM was determined as 94%.

With `O=C1CCC2(CN(C(=O)c3ccc(-c4ccc5c(c4)CCC5)cc3)C2)N1` [Example 57, 2-(4-(2,3-dihydro-1H-inden-5-yl)benzoyl)-2,5-diazaspiro[3.4]octan-6-one], the inhibition at 10 µM worked out at 99%.

Take `O=C1CCC2(CN(C(=O)c3ccc(-c4ccc(OC(F)(F)F)cc4)cc3)C2)N1` [Example 58, 2-((4′-(trifluoromethoxy)biphenyl-4-yl)carbonyl)-2,5-diazaspiro[3.4]octan-6-one]: the inhibition at 10 µM is 96%.

Turning to `O=C1CCC2(CN(C(=O)c3ccc(-c4ccc(OC(F)(F)F)cc4F)cc3)C2)N1` [Example 59, 2-((2′-fluoro-4′-(trifluoromethoxy)biphenyl-4-yl)carbonyl)-2,5-diazaspiro[3.4]octan-6-one], the inhibition at 10 µM worked out at 97%.

Turning to `O=C1CCC2(CN(C(=O)c3ccc(-c4cccc(OC(F)(F)F)c4)cc3)C2)N1` [Example 60, 2-((3′-(trifluoromethoxy)biphenyl-4-yl)carbonyl)-2,5-diazaspiro[3.4]octan-6-one], the inhibition at 10 µM amounted to 98%.

Regarding `O=C1CCC2(CN(C(=O)c3ccc(-c4cc(OC(F)(F)F)ccc4F)cc3)C2)N1` [Example 61, 2-((2′-fluoro-5′-(trifluoromethoxy)biphenyl-4-yl)carbonyl)-2,5-diazaspiro[3.4]octan-6-one], the inhibition at 10 µM came out at 97%.

Consider `O=C1CCC2(CN(C(=O)c3ccc(-c4ccccc4OC(F)(F)F)cc3)C2)N1` [Example 62, 2-((2′-(trifluoromethoxy)biphenyl-4-yl)carbonyl)-2,5-diazaspiro[3.4]octan-6-one], for which the inhibition at 10 µM was determined as 95%.
